Measurements as given in patent publication EP4722219A1 (Gan & Lee Pharmaceuticals Co., Ltd., priority 2023, dated 2024).

Key:
Format in all cases: cell-based
ERα [1] = biological target: T1, ERα (Homo sapiens, UniProt P03372); assay: ERα degradation in MCF-7 cells (Western blot); set-up: host or cells: MCF-7; conditions: 4 hours
T1 sequence (P03372 1-595): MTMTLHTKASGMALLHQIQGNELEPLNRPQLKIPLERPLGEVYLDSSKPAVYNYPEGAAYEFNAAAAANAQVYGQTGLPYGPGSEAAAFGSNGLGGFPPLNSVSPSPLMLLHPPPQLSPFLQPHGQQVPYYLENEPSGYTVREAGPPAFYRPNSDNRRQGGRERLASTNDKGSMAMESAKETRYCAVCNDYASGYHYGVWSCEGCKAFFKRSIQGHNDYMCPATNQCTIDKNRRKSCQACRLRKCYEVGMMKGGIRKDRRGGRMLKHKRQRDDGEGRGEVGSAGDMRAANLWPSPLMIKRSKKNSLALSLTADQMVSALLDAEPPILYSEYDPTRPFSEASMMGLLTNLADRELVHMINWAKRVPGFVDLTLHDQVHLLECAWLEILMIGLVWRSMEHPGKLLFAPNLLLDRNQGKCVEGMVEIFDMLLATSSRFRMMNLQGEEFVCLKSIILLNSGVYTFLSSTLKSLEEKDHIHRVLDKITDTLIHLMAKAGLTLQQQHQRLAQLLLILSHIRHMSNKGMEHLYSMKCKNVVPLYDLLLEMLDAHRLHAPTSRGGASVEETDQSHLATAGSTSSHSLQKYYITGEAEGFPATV
Method in brief: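 MCF-7 cells treated 4 h at 37 °C with compound at 0.15–1000 nM final. ERα in lysates measured by Western blot (20 µg protein), normalized to an internal reference protein; degradation rate calculated against control.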

MCF-7 cells = assay: Inhibition of cell proliferation in MCF-7 cells (CCK-8); conditions: Homo sapiens, MCF7, 144 h, MCF-7 cell proliferation, 6 days treatment
Method in brief: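 MCF-7 cells, 800 per well in DMEM plus 10% FBS, exposed to graded PROTAC concentrations for 6 days at 37 °C, 5% CO2. Viability by CCK-8; IC50 fitted from inhibition rates.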

ERα [2] = biological target: T1, ERα; assay: ERα degradation in T-47D cells (Western blot); conditions: 4 hours
Method in brief: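 T-47D cells at 3×10^5 cells/well were exposed to compound (final 0.15-1000 nM, DMSO) for 4 hours at 37°C and then lysed in RIPA. ERα was measured by Western blot (20 µg protein) with infrared imaging. The degradation rate was calculated from ERα/internal-reference grayscale ratios relative to control.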

T-47D cells = assay: Inhibition of cell proliferation in T-47D cells (CCK-8); conditions: Homo sapiens, T47D, 144 h, 6 days treatment, CCK-8 cell viability
Method in brief: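 T-47D cells (3,000/well) in RPMI-1640 with 10% FBS were exposed to a concentration range of PROTAC compounds for 6 days at 37 °C, 5% CO2. Viability read by CCK-8; IC50 fitted from inhibition rate.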

SMILES	Degradation rate of ERα in MCF-7 cells (%) (ERα [1]; 1nM)	Degradation rate of ERα in MCF-7 cells (%) (ERα [1]; 10nM)	IC50 (MCF-7 cells) [nM]	Degradation rate of ERα in T-47D cells (%) (ERα [2]; 1nM)	Degradation rate of ERα in T-47D cells (%) (ERα [2]; 10nM)	IC50 (T-47D cells) [nM]
Cn1c(=O)n(C2CCC(=O)NC2=O)c2ccc3c(c21)OCC31CCN(CC2CCN(C(=O)C3CCN(c4ccc([C@@H]5c6ccc(O)cc6CC[C@@H]5c5ccccc5)cc4)CC3)CC2)CC1 (stereo partly drawn) [ER-P-63, 3-(1'-((1-(1-(4-((1R,2S)-6-hydroxy-2-phenyl-1,2,3,4-tetrahydronaphthalen-1-yl)phenyl)piperidine-4-carbonyl)piperidin-4-yl)methyl)-1-methyl-2-oxo-1,2-dihydro-3H,7H-spiro[benzofuro[6,7-d]imidazole-6,4'-piperidin]-3-yl)piperidine-2,6-dione]	53	56	3750	56	65	1.15
Cn1c(=O)n(C2CCC(=O)NC2=O)c2cc3c(cc21)C1(CCN(C[C@H]2CC[C@@H](OC4CCN(c5ccc([C@@H]6c7ccc(O)cc7CC[C@@H]6c6ccccc6)cc5)CC4)CC2)CC1)CO3 (stereo partly drawn) [ER-P-55, 3-(1'-(((1S,4S)-4-((1-(4-((1R,2S)-6-hydroxy-2-phenyl-1,2,3,4-tetrahydronaphthalen-1-yl)phenyl)piperidin-4-yl)oxy)cyclohexyl)methyl)-1-methyl-2-oxo-1,2-dihydro-3H,6H-spiro[benzofuro[5,6-d]imidazole-7,4'-piperidin]-3-yl)piperidine-2,6-dione]	35	69	113	62	87	0.18
O=C1CC[C@H](NC(=O)c2cc3c(cc2F)N2CCN(C[C@H]4CC[C@@H](OC5CCN(c6ccc([C@@H]7c8ccc(O)cc8CC[C@@H]7c7ccccc7)cc6)CC5)CC4)C[C@@H]2CO3)C(=O)N1 [ER-P-67, (R)-N-((S)-2,6-dioxopiperidin-3-yl)-9-fluoro-3-(((1S,4S)-4-((1-(4-((1R,2S)-6-hydroxy-2-phenyl-1,2,3,4-tetrahydronaphthalen-1-yl)phenyl)piperidin-4-yl)oxy)cyclohexyl)methyl)-1,2,3,4,4a,5-hexahydrobenzo[b]pyrazi no[1,2-d][1,4]oxazine-8-carboxamide]	28	13	2990	6	20	92.5
Cn1c(=O)n(C2CCC(=O)NC2=O)c2cc3c(cc21)OC1(CC3)CCN(C[C@H]2CC[C@@H](OC3CCN(c4ccc([C@@H]5c6ccc(O)cc6CC[C@@H]5c5ccccc5)cc4)CC3)CC2)CC1 (stereo partly drawn) [ER-P-65, 3-(1'-(((1S,4S)-4-((1-(4-((1R,2S)-6-hydroxy-2-phenyl-1,2,3,4-tetrahydronaphthalen-1-yl)phenyl)piperidin-4-yl)oxy)cyclohexyl)methyl)-3-methyl-2-oxo-2,3,7,8-tetrahydro-1H-spiro[benzopyrano[6,7-d]imidazole-6,4'-piperidin]-1-yl)piperidine-2,6-dione]	21	62	261	20	77	7.34
CN(C(=O)CN1CCC2(CC1)CCC1(CC2)COc2c1ccc1c2CN(C2CCC(=O)NC2=O)C1=O)C1CCC2(CC1)CN(c1ccc([C@@H]3c4ccc(O)cc4CC[C@@H]3c3ccccc3)cc1)C2 (stereo partly drawn) [ER-P-20, 2-(7-(2,6-dioxohesperidin-3-yl)-6-oxo-7,8-dihydro-2H,6H-dipyrazole[furo[2,3-e]isoindole-3,1'-cyclohexane-4',4'-piperidin]-1"-yl)-N-(2-(4-((1R,2S)-6-hydroxy-2-phenyl-1,2,3,4-tetrahydronaphthalen-1-yl)phenyl)-2-azaspiro[3.5]nonan-7-yl)-N-methylacetamide]	5	30	2230	38	66	5.02
O=C1CC[C@H](NC(=O)c2ccc3c(c2F)OCC32CCN(CC3CCN(c4ccc([C@@H]5c6ccc(O)cc6CC[C@@H]5c5ccccc5)cc4)CC3)CC2)C(=O)N1 [ER-P-42, N-((S)-2,6-dioxopiperidin-3-yl)-7-fluoro-1'-((1-(4-((1R,2S)-6-hydroxy-2-phenyl-1,2,3,4-tetrahydronaphthalen-1-yl)phenyl)piperidin-4-yl)methyl)-2H-spiro[benzofuran-3,4'-piperidine]-6-carboxamide]	-20	-3	4500	-27	-28	10.4
Cn1c(=O)n(C2CCC(=O)NC2=O)c2ccc3c(c21)OCC31CCN(C2CCC3(CC2)CCN(c2ccc([C@@H]4c5ccc(O)cc5CC[C@@H]4c4ccccc4)cc2)CC3)CC1 (stereo partly drawn) [ER-P-16, 3-(1'-(3-(4-((1R,2S)-6-hydroxy-2-phenyl-1,2,3,4-tetrahydronaphthalen-1-yl)phenyl)-3-azaspiro[5.5]undecan-9-yl)-1-methyl-2-oxo-1,2-dihydro-3H,7H-spiro[benzofuro[6,7-d]imidazole-6,4'-piperidin]-3-yl)piperidine-2,6-dione]	43	62	885	69	73	0.62
Cn1c(=O)n(C2CCC(=O)NC2=O)c2cc3c(cc21)C1(CCN(C2CCN(C(=O)C4CCN(c5ccc([C@@H]6c7ccc(O)cc7CC[C@@H]6c6ccccc6)cc5)CC4)CC2)CC1)CO3 (stereo partly drawn) [ER-P-14, 3-(1'-(1-(1-(4-((1R,2S)-6-hydroxy-2-phenyl-1,2,3,4-tetrahydronaphthalen-1-yl)phenyl)piperidine-4-carbonyl)piperidin-4-yl)-1-methyl-2-oxo-1,2-dihydro-3H,6H-spiro[benzofuro[5,6-d]imidazole-7,4'-piperidin]-3-yl)piperidine-2,6-dione]	69	63	34.6	64	61	0.81
O=C1CCC(N2Cc3c(ccc4c3OCC43CCC4(CC3)CN(C(=O)C3CCN(c5ccc([C@@H]6c7ccc(O)cc7CC[C@@H]6c6ccccc6)cc5)CC3)C4)C2=O)C(=O)N1 (stereo partly drawn) [ER-P-4, 3-(1-(1-(4-(((1R,2S)-6-hydroxy-2-phenyl-1,2,3,4-tetrahydronaphthalen-1-yl)phenyl)piperidine-4-carbonyl)-6'-oxo-6',8'-dihydro-2'H,7'H-diazetidine-3,1'-cyclohexane-4',3"-furo[2,3-e]isoindol]-7'-yl)piperidine-2,6-dione]	9	20	92000	21	54	3.63
Cn1c(=O)n(C2CCC(=O)NC2=O)c2cc3c(cc21)C1(CCN(CC2CCC4(CC2)CN(c2ccc([C@@H]5c6ccc(O)cc6CC[C@@H]5c5ccccc5)cc2)C4)CC1)CO3 (stereo partly drawn) [ER-P-61]	9	18	28.8	22	43	1.12
Cn1c(=O)n(C2CCC(=O)NC2=O)c2cc3c(cc21)C1(CCN(C(=O)C2CN(CC4CCN(c5ccc([C@@H]6c7ccc(O)cc7CC[C@@H]6c6ccccc6)cc5)CC4)C2)CC1)CO3 (stereo partly drawn) [ER-P-26]	43	40	125	58	70	0.51
Cn1c(=O)n(C2CCC(=O)NC2=O)c2cc3c(cc21)C1(CCN(C2CCC4(CC2)CN(c2ccc([C@@H]5c6ccc(O)cc6CC[C@@H]5c5ccccc5)cc2)C4)CC1)CO3 (stereo partly drawn) [ER-P-59]	14	18	0.875	40	63	0.96
